Laboratory results as given in ChEMBL document CHEMBL4483862, “Open-source discovery of chemical leads for next-generation chemoprotective antimalarials” (2018).

Tested on: Plasmodium berghei
Experiment: Luciferase/luciferin-expressing antifolate-resistant parasites were used to infect a culture of HepG2 cells that were pre-incubated with compounds. Infected hepatocytes emit light due to the luciferase reaction. Assay results are presented as the percent inhibition of light emission compared to control. […]
Type: functional
Conditions: sporozoite; for IC90: read-out: LUCIFERASE INFECTION ASSAY - IC90

COCCCNc1nnc(Cc2ccc(Cl)cc2)c(O)n1
IC50 (HEPG2TOX_HILL_SLOPE 2.55, HEPG2TOX_R_SQUARED 0.699, PBLUC_HILL_SLOPE 0.604, PBLUC_R_SQUARED 0.236, read-out: LUCIFERASE INFECTION ASSAY - IC50): 6.39 µM
IC90: > 10.7 µM

COc1ccc(CCN=C(S)NC2CCN(Cc3ccccc3)CC2)cc1
IC50 (HEPG2TOX_HILL_SLOPE 2.55, HEPG2TOX_R_SQUARED 0.6, read-out: LUCIFERASE INFECTION ASSAY - IC50): > 10 µM
IC90: > 10 µM

Cc1ccc(C(C)C)c(OCc2ccc(C(=O)N/N=C/c3cccc(O)c3O)cc2)c1
IC50 (HEPG2TOX_HILL_SLOPE 2.51, HEPG2TOX_R_SQUARED 0.938, PBLUC_HILL_SLOPE 16, PBLUC_R_SQUARED 0.0407, read-out: LUCIFERASE INFECTION ASSAY - IC50): 9.9 µM
IC90: > 10 µM

NC(COCc1ccccc1)c1csc(NC(=O)Nc2cccc(C(F)(F)F)c2)n1 (configuration not stated)
IC50 (HEPG2TOX_HILL_SLOPE 2.5, HEPG2TOX_R_SQUARED 0.677, PBLUC_HILL_SLOPE 2.37, PBLUC_R_SQUARED 0.435, read-out: LUCIFERASE INFECTION ASSAY - IC50): 5.16 µM
IC90: > 7.56 µM

COCCNc1nc(Nc2ccc(C)cc2C)c2sccc2n1
IC50 (HEPG2TOX_HILL_SLOPE 2.54, HEPG2TOX_R_SQUARED 0.987, PBLUC_HILL_SLOPE 3.36, PBLUC_R_SQUARED 0.0445, read-out: LUCIFERASE INFECTION ASSAY - IC50): > 10 µM
IC90: > 10 µM

Cc1nn(C(C)(C)C)c2c1C(c1ccc3c(c1)OCO3)C1C(=O)CC(C)(C)CC1=N2 (configuration not stated)
IC50 (HEPG2TOX_HILL_SLOPE 2.55, HEPG2TOX_R_SQUARED 0.436, read-out: LUCIFERASE INFECTION ASSAY - IC50): > 10 µM
IC90: > 10 µM

O=C1C=C(NCc2ccccc2)CC(c2ccc(Cl)cc2)C1 (configuration not stated)
IC50 (HEPG2TOX_HILL_SLOPE 2.56, HEPG2TOX_R_SQUARED 0.714, PBLUC_HILL_SLOPE 1.97, PBLUC_R_SQUARED 0.212, read-out: LUCIFERASE INFECTION ASSAY - IC50): 6.81 µM
IC90: > 10.6 µM

CC(Oc1ccc(Oc2ccc(C(F)(F)F)cc2)cc1)C(=O)N1CCN(c2ccc(C(F)(F)F)cn2)CC1 (configuration not stated)
IC50 (HEPG2TOX_HILL_SLOPE 2.54, HEPG2TOX_R_SQUARED 0.907, PBLUC_HILL_SLOPE 2.4, PBLUC_R_SQUARED 0.3, read-out: LUCIFERASE INFECTION ASSAY - IC50): 3 µM
IC90: > 6.12 µM

Cc1ccc(-c2noc(CCCN3CCN(c4cnn(-c5ccccc5)c(=O)c4Cl)CC3)n2)cc1
IC50 (HEPG2TOX_HILL_SLOPE 2.5, HEPG2TOX_R_SQUARED 0.985, PBLUC_HILL_SLOPE 2.59, PBLUC_R_SQUARED 0.752, read-out: LUCIFERASE INFECTION ASSAY - IC50): 2.28 µM
IC90: 5.31 µM

CCNC(=O)NC(=O)CNC(c1ccc(CC)cc1)c1cccc(F)c1 (configuration not stated)
IC50 (HEPG2TOX_HILL_SLOPE 2.54, HEPG2TOX_R_SQUARED 0.274, read-out: LUCIFERASE INFECTION ASSAY - IC50): > 10 µM
IC90: > 10 µM

COc1cc(OC)cc(-c2cnc3cnc(-c4cccc(C)c4C)cn23)c1
IC50 (HEPG2TOX_HILL_SLOPE 2.52, HEPG2TOX_R_SQUARED 0.881, PBLUC_HILL_SLOPE 5.04, PBLUC_R_SQUARED 0.463, read-out: LUCIFERASE INFECTION ASSAY - IC50): 5.58 µM
IC90: 8.63 µM

CCN1C(=O)N(CCCc2cccnc2)C(=O)C12CCN(Cc1cccc(C(F)(F)F)c1)CC2
IC50 (HEPG2TOX_HILL_SLOPE 2.53, HEPG2TOX_R_SQUARED 0.847, PBLUC_HILL_SLOPE 12.5, PBLUC_R_SQUARED 0.0898, read-out: LUCIFERASE INFECTION ASSAY - IC50): 6.59 µM
IC90: > 6.95 µM

CC(C(=O)NC(N)=O)N(C)Cc1ccc(OCc2ccc(Cl)cc2)cc1 (configuration not stated)
IC50 (HEPG2TOX_HILL_SLOPE 2.51, HEPG2TOX_R_SQUARED 0.952, PBLUC_HILL_SLOPE 1.26, PBLUC_R_SQUARED 0.93, read-out: LUCIFERASE INFECTION ASSAY - IC50): 1.73 µM
IC90: 9.89 µM

Cc1ccc(F)cc1NS(=O)(=O)c1ccc(-n2ncc(Cl)c(Cl)c2=O)cc1
IC50 (HEPG2TOX_HILL_SLOPE 2.56, 7.18, HEPG2TOX_R_SQUARED 0.970, 0.512, PBLUC_HILL_SLOPE 2.23, 0.224, PBLUC_R_SQUARED 0.767, 0.129, read-out: LUCIFERASE INFECTION ASSAY - IC50): 2.08 µM
IC90: 6.47 µM

COc1ccc(NC(=O)c2cc(N(C)Cc3ccccc3)ncn2)cn1
IC50 (HEPG2TOX_HILL_SLOPE 2.56, HEPG2TOX_R_SQUARED 0.944, PBLUC_HILL_SLOPE 1.8, PBLUC_R_SQUARED 0.498, read-out: LUCIFERASE INFECTION ASSAY - IC50): 2.14 µM
IC90: 7.26 µM

CCn1nc(C(=O)N2CCN(c3ccccc3)CC2)c2c1CCN(Cc1cc(C)c(OC)cc1C)C2
IC50 (HEPG2TOX_HILL_SLOPE 2.53, HEPG2TOX_R_SQUARED 0.945, PBLUC_HILL_SLOPE 5.03, PBLUC_R_SQUARED 0.659, read-out: LUCIFERASE INFECTION ASSAY - IC50): 4.44 µM
IC90: > 6.77 µM

Cn1c(-c2cccnc2)cc2cnc(Nc3ccc(OC(F)(F)F)cc3)cc21
IC50 (HEPG2TOX_HILL_SLOPE 2.53, HEPG2TOX_R_SQUARED 0.903, PBLUC_HILL_SLOPE 4.19, PBLUC_R_SQUARED 0.443, read-out: LUCIFERASE INFECTION ASSAY - IC50): 5.61 µM
IC90: 9.47 µM

Cc1cccc(C(=O)Nc2nc3ccccn3c2C(=O)NC(C)C)c1
IC50 (HEPG2TOX_HILL_SLOPE 2.5, HEPG2TOX_R_SQUARED 0.601, PBLUC_HILL_SLOPE 2.39, PBLUC_R_SQUARED 0.0938, read-out: LUCIFERASE INFECTION ASSAY - IC50): 6.28 µM
IC90: > 9.81 µM

O=C(Nc1nc2ccc(Oc3ccccc3)cc2s1)c1ccoc1
IC50 (HEPG2TOX_HILL_SLOPE 2.54, HEPG2TOX_R_SQUARED 0.824, PBLUC_HILL_SLOPE 3.93, PBLUC_R_SQUARED 0.329, read-out: LUCIFERASE INFECTION ASSAY - IC50): 7.66 µM
IC90: > 10 µM

CC(Sc1nnc(/C=C/c2ccc(F)cc2)[nH]1)C(=O)N(Cc1ccccc1)Cc1ccccc1 (configuration not stated)
IC50 (HEPG2TOX_HILL_SLOPE 2.54, HEPG2TOX_R_SQUARED 0.989, PBLUC_HILL_SLOPE 16.4, PBLUC_R_SQUARED 0.588, read-out: LUCIFERASE INFECTION ASSAY - IC50): 3.27 µM
IC90: 3.74 µM

Clc1ccc2c(NCc3ccc(CN4CCOCC4)cc3)ccnc2c1
IC50 (HEPG2TOX_HILL_SLOPE 2.51, 1.28, HEPG2TOX_R_SQUARED 0.778, 0.972, PBLUC_HILL_SLOPE 2.92, 9.52, PBLUC_R_SQUARED 0.401, 0.159, read-out: LUCIFERASE INFECTION ASSAY - IC50): 4.34 µM
IC90: 4.14 µM

Cn1cc(C(=O)Nc2ccc(-c3nc4ccccc4[nH]3)cc2)c(-c2ccc3c(c2)OCCCO3)n1
IC50 (HEPG2TOX_HILL_SLOPE 2.56, HEPG2TOX_R_SQUARED 0.953, PBLUC_HILL_SLOPE 7.83, PBLUC_R_SQUARED 0.745, read-out: LUCIFERASE INFECTION ASSAY - IC50): 3.25 µM
IC90: 4.31 µM

O=C(COc1ccccc1-c1ccccc1)Nc1nc(-c2ccccn2)cs1
IC50 (HEPG2TOX_HILL_SLOPE 2.53, HEPG2TOX_R_SQUARED 0.481, PBLUC_HILL_SLOPE 10.3, PBLUC_R_SQUARED 0.199, read-out: LUCIFERASE INFECTION ASSAY - IC50): 7.56 µM
IC90: 9.35 µM

CC(=O)Nc1cccc(/C(C)=N/n2c(-c3cccc(Br)c3)cs/c2=N\c2ccc(F)cc2)c1
IC50 (HEPG2TOX_HILL_SLOPE 2.5, HEPG2TOX_R_SQUARED 0.833, PBLUC_HILL_SLOPE 128, PBLUC_R_SQUARED 0.253, read-out: LUCIFERASE INFECTION ASSAY - IC50): 1.66 µM
IC90: 1.69 µM

COc1ccc(NCC2(c3ccnc(-c4ccccc4Cl)c3)CC2)cn1
IC50 (HEPG2TOX_HILL_SLOPE 2.53, HEPG2TOX_R_SQUARED 0.891, PBLUC_HILL_SLOPE 5.38, PBLUC_R_SQUARED 0.384, read-out: LUCIFERASE INFECTION ASSAY - IC50): 7.39 µM
IC90: > 10 µM

O=C1NCC(COC(=O)c2ccc3c4c(cccc24)CC3)O1 (configuration not stated)
IC50 (HEPG2TOX_HILL_SLOPE 2.53, HEPG2TOX_R_SQUARED 0.949, PBLUC_HILL_SLOPE 23.6, PBLUC_R_SQUARED 0.351, read-out: LUCIFERASE INFECTION ASSAY - IC50): 3.32 µM
IC90: 3.64 µM

O=C(NNc1ccc(I)cc1)c1cc(Cl)cc(Cl)c1
IC50 (HEPG2TOX_HILL_SLOPE 2.56, HEPG2TOX_R_SQUARED 0.673, PBLUC_HILL_SLOPE 20.4, PBLUC_R_SQUARED 0.213, read-out: LUCIFERASE INFECTION ASSAY - IC50): 2.56 µM
IC90: 2.86 µM

N#CC(/N=C\c1ccc(Cl)cc1)=C(\C#N)NC(=O)Nc1ccc(OC(F)(F)F)cc1
IC50 (HEPG2TOX_HILL_SLOPE 2.54, HEPG2TOX_R_SQUARED 0.983, PBLUC_HILL_SLOPE 13.2, PBLUC_R_SQUARED 0.605, read-out: LUCIFERASE INFECTION ASSAY - IC50): 2.33 µM
IC90: 2.75 µM

O=C(Nc1ccccc1)Nc1nnc(C(F)(F)F)s1
IC50 (HEPG2TOX_HILL_SLOPE 2.53, HEPG2TOX_R_SQUARED 0.953, PBLUC_HILL_SLOPE 4.44, PBLUC_R_SQUARED 0.774, read-out: LUCIFERASE INFECTION ASSAY - IC50): 0.65 µM
IC90: 1.07 µM

CCOC(=O)C1=C(C)NC(C)=C(C(=O)OCC)C1C(=O)OCC(=O)NC12CC3CC(CC(C3)C1)C2
IC50 (HEPG2TOX_HILL_SLOPE 2.54, HEPG2TOX_R_SQUARED 0.735, read-out: LUCIFERASE INFECTION ASSAY - IC50): > 10 µM
IC90: > 10 µM

COc1ccc(-c2cc(=O)n3nc(C)c(-c4ccc(F)cc4)c3[nH]2)cc1
IC50 (HEPG2TOX_HILL_SLOPE 2.56, HEPG2TOX_R_SQUARED 0.662, PBLUC_HILL_SLOPE 58.3, PBLUC_R_SQUARED 0.0989, read-out: LUCIFERASE INFECTION ASSAY - IC50): 3.12 µM
IC90: 3.24 µM
